{
  "source": "paper PMC9610298",
  "about": "“Synthesis, Biological Evaluation and Machine Learning Prediction Model for Fluorinated Cinchona Alkaloid-Based Derivatives as Cholinesterase Inhibitors” (Pharmaceuticals, 2022)",
  "key": {"[1]": {"molecular_target": "T1, purified human BChE (Homo sapiens, UniProt P06276)", "T1 sequence (P06276 29-602)": "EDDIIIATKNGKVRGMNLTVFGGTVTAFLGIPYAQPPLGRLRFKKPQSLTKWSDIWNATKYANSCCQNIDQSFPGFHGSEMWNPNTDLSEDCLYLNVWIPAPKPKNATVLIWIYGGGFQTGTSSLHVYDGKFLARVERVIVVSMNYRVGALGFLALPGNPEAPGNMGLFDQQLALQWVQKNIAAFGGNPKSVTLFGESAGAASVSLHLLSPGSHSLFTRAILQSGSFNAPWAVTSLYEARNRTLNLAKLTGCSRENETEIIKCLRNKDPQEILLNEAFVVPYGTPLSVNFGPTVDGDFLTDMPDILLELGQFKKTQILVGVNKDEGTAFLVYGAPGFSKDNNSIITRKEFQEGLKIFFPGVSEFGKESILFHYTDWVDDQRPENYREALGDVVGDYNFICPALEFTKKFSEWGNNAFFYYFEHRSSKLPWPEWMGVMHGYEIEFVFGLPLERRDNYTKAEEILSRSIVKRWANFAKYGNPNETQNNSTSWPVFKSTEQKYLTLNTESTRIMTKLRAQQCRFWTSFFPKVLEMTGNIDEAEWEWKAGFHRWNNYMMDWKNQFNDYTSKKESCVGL", "details": "earlier determined; cited from earlier work"}, "[2]": {"molecular_target": "T1, purified human BChE", "test": "Reversible inhibition of BChE, Ellman method, enzyme-inhibitor dissociation constants", "format": "biochemical", "details": "for SI, selective index Ki(AChE)/Ki(BChE): times higher preference for BChE over AChE; for Ki: ± standard error, ATCh substrate, 25 °C, pH 7.4", "protocol": "(§1) As a source of BChE, a purified human BChE, and as AChE, a recombinant human AChE was used, both enzymes kindly provided by Dr. F. Nachon (Département de Toxicologie, Armed Forces Biomedical Research Institute, France). The concentrated stocks of enzymes (BChE: 5.6 µM; AChE: 0.20 µM) were diluted in a phosphate sodium buffer 0.1 M (pH 7.4) containing 0.1% BSA before starting the experiments.\n(§2) Enzyme activities were measured spectrophotometrically by the Ellman method at […] using 0.30 mM DTNB as thiol reagent, ATCh as substrate and water in 0.1 M phosphate buffer, pH 7.4. For the inhibition measurements, the reaction mixture contained tested compounds instead of water. […] Measurements were done at 25 °C on a Tecan Infinite M200Pro plate reader (Austria). A detailed description of measurement protocol was described previously.\n(§3) The reversible inhibition of BChE and AChE by tested compounds was measured by determining the decrease of enzyme activity towards ATCh in their presence. The activities of the enzymes were measured at different substrate concentrations ([S]; 0.050–0.50 mM) in the absence (v0) and presence (vi) of the given tested compounds concentration ([I]; 0.050–200 µM, depending on the compound) selected to inhibit the enzymes for 20–80%. At least three concentrations of inhibitors for each substrate concentration were used in at least three experiments. The apparent dissociation inhibition constant (Ki,app) was calculated applying the Hunter-Downs equation and linear regression analysis (1):(1) Ki,app=vi/v0−vi⋅I=KI+KI/KS⋅S where y-intercept determines the enzyme-inhibitor dissociation constants (K(I)), while x-intercept determines the enzyme-substrate dissociation constant, K(S). The determination of kinetic constants was carried out using the GraphPadPrism 6.0 program (GraphPad Software, San Diego, CA, USA)."}, "[3]": {"molecular_target": "recombinant human AChE (Homo sapiens, UniProt P22303)", "sequence (P22303 32-614)": "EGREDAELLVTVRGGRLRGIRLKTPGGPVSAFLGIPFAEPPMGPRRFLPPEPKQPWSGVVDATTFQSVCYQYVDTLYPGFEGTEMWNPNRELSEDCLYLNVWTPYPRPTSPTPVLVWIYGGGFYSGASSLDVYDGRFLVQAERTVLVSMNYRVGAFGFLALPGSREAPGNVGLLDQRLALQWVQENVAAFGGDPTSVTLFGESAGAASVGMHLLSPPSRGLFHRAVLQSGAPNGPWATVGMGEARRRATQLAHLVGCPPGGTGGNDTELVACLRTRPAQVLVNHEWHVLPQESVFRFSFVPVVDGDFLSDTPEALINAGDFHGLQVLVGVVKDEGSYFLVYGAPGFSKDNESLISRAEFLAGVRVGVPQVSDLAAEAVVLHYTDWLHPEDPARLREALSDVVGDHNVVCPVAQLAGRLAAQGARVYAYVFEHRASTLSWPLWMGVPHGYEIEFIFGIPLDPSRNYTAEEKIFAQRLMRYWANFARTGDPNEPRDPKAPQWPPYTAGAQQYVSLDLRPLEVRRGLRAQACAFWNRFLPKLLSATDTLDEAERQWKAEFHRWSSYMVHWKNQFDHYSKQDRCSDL", "test": "Reversible inhibition of AChE, Ellman method, enzyme-inhibitor dissociation constants", "format": "biochemical", "details": "± standard error; ATCh substrate, 25 °C, pH 7.4", "protocol": "as §1, §2, §3"}},
  "data": [
    {"smiles": "C=CC1C[N+]2(Cc3ccc(Br)cc3)CCC1CC2C(O)c1ccnc2ccccc12", "note": "(stereo not shown) [N-para-bromobenzyl CD derivative]", "values": [
      {"measurement": "selectivity to BChE over AChE (times)", "setting": "[1]", "value": 510}
    ]},
    {"smiles": "CCC1C[N+]2(Cc3ccc(F)cc3)CCC1C[C@@H]2[C@@H](O)c1ccnc2ccccc12", "note": "(stereo partly shown) [DHCN 4F, N-(4-fluorobenzyl)-10,11-dihydrocinchoninium bromide]", "values": [
      {"measurement": "SI, selective index Ki(AChE)/Ki(BChE)", "setting": "[2]", "value": 40},
      {"measurement": "Ki", "setting": "[2]", "value": "1.6 ± 0.1", "unit": "µM"},
      {"measurement": "Ki", "setting": "[3]", "value": "64 ± 2", "unit": "µM"}
    ]},
    {"smiles": "CCC1C[N+]2(Cc3ccccc3)CCC1C[C@@H]2[C@@H](O)c1ccnc2ccccc12", "note": "(stereo partly shown) [DHCN Bzl]", "values": [
      {"measurement": "SI, selective index Ki(AChE)/Ki(BChE)", "setting": "[2]", "value": 23},
      {"measurement": "Ki", "setting": "[2]", "value": "0.9 ± 0.04", "unit": "µM"},
      {"measurement": "Ki", "setting": "[3]", "value": "21 ± 1", "unit": "µM"}
    ]},
    {"smiles": "C=CC1C[N+]2(Cc3ccc(Br)cc3F)CCC1C[C@H]2[C@H](O)c1ccnc2ccccc12", "note": "(stereo partly shown) [CD 2F-4Br, N-(2-fluoro-4-bromobenzyl)cinchonidinium bromide]", "values": [
      {"measurement": "SI, selective index Ki(AChE)/Ki(BChE)", "setting": "[2]", "value": 10},
      {"measurement": "Ki", "setting": "[2]", "value": "0.68 ± 0.05", "unit": "µM"},
      {"measurement": "Ki", "setting": "[3]", "value": "7.2 ± 0.4", "unit": "µM"}
    ]},
    {"smiles": "C=CC1C[N+]2(Cc3ccc(F)cc3F)CCC1C[C@H]2[C@H](O)c1ccnc2ccccc12", "note": "(stereo partly shown) [CD 2,4F]", "values": [
      {"measurement": "SI, selective index Ki(AChE)/Ki(BChE)", "setting": "[2]", "value": 1.1},
      {"measurement": "Ki", "setting": "[2]", "value": "6.1 ± 0.5", "unit": "µM"},
      {"measurement": "Ki", "setting": "[3]", "value": "6.4 ± 0.3", "unit": "µM"}
    ]},
    {"smiles": "C=CC1C[N+]2(Cc3ccc(F)cc3)CCC1C[C@@H]2[C@@H](O)c1ccnc2ccccc12", "note": "(stereo partly shown) [CN 4F, N-(para-fluorobenzyl)cinchoninium bromide]", "values": [
      {"measurement": "SI, selective index Ki(AChE)/Ki(BChE)", "setting": "[2]", "value": 1.5},
      {"measurement": "Ki", "setting": "[2]", "value": "2.6 ± 0.1", "unit": "µM"},
      {"measurement": "Ki", "setting": "[3]", "value": "3.9 ± 0.2", "unit": "µM"}
    ]},
    {"smiles": "CCC1C[N+]2(Cc3ccccc3)CCC1C[C@H]2[C@H](O)c1ccnc2ccccc12", "note": "(stereo partly shown) [DHCD Bzl]", "values": [
      {"measurement": "SI, selective index Ki(AChE)/Ki(BChE)", "setting": "[2]", "value": 12},
      {"measurement": "Ki", "setting": "[2]", "value": "0.4 ± 0.02", "unit": "µM"},
      {"measurement": "Ki", "setting": "[3]", "value": "4.8 ± 0.4", "unit": "µM"}
    ]},
    {"smiles": "C=CC1C[N+]2(Cc3c(F)cccc3C(F)(F)F)CCC1C[C@@H]2[C@@H](O)c1ccnc2ccccc12", "note": "(stereo partly shown) [CN 2F-6CF3, N-(2-fluoro-6-trifluoromethylbenzyl)cinchoninium bromide]", "values": [
      {"measurement": "SI, selective index Ki(AChE)/Ki(BChE)", "setting": "[2]", "value": 7.9},
      {"measurement": "Ki", "setting": "[2]", "value": "7.7 ± 0.4", "unit": "µM"},
      {"measurement": "Ki", "setting": "[3]", "value": "61 ± 2", "unit": "µM"}
    ]},
    {"smiles": "C=CC1C[N+]2(Cc3cccc(C(F)(F)F)c3)CCC1C[C@@H]2[C@@H](O)c1ccnc2ccccc12", "note": "(stereo partly shown) [CN 3CF3]", "values": [
      {"measurement": "SI, selective index Ki(AChE)/Ki(BChE)", "setting": "[2]", "value": 13},
      {"measurement": "Ki", "setting": "[2]", "value": "4.4 ± 0.2", "unit": "µM"},
      {"measurement": "Ki", "setting": "[3]", "value": "59 ± 2", "unit": "µM"}
    ]},
    {"smiles": "CCC1C[N+]2(Cc3cccc(F)c3)CCC1C[C@@H]2[C@@H](O)c1ccnc2ccccc12", "note": "(stereo partly shown) [DHCN 3F, N-(3-fluorobenzyl)-10,11-dihydrocinchoninium bromide]", "values": [
      {"measurement": "SI, selective index Ki(AChE)/Ki(BChE)", "setting": "[2]", "value": 20},
      {"measurement": "Ki", "setting": "[2]", "value": "1.2 ± 0.1", "unit": "µM"},
      {"measurement": "Ki", "setting": "[3]", "value": "20 ± 1", "unit": "µM"}
    ]},
    {"smiles": "CCC1CN2CCC1CC2C(O)c1ccnc2ccccc12", "note": "(stereo not shown) [DHCD, 10,11-dihydrocinchonidine]", "values": [
      {"measurement": "SI, selective index Ki(AChE)/Ki(BChE)", "setting": "[2]", "value": 11},
      {"measurement": "Ki", "setting": "[2]", "value": "19 ± 2", "unit": "µM"},
      {"measurement": "Ki", "setting": "[3]", "value": "206 ± 6", "unit": "µM"}
    ]}
  ]
}
